“And” between values parts separate entries of the source, which are not always exact repeats. Identical values can stand only once. Like-named read-outs stand apart in the source and are kept apart here.
Assays:
[1] = test system: TRIM24-MET L97 human glioma cell lines; experiment: γH2AX immunofluorescence after 4 Gy irradiation, TRIM24-MET human glioma cells; format: cell-based; conditions: 1, 2, 3 and 4 hours following 4 Gy irradiation
Method: (§1) Error bars display standard error of mean, statistical significance was determined using t-test analysis. (****;p<0.0001, ***;p<0.001, **;p<0.01, *;p<0.05). […] Each dot represents an individual replicate. Error bars display standard error of the mean. Statistical significance was determined using a One-Way ANOVA followed by Tukey’s multiple comparisons test (*p<0.05, **p<0.01, ***p<0.001, ****p<0.0001).

TFG-MET allograft tumors = experiment: TFG-MET allograft preclinical trial in CD1 mice, Survival cohort (survival, BLI, body weight); format: in vivo, mouse; conditions: for BLI signal, individual mice: Murine allografts
Method: All treatments started 1 week after transplantation. Radio therapy was administered for 6 days, delivering 12 Gy total. Compound treatment was continued for 84 days. […] N = 8 (vehicle arms) or n = 10 (compound-treated arms), respectively. […] First row is depicted in another intensity scale to visualize tumors in all mice. The depicted scale bar indicates the range from 5x10^5-1x10^7 photons/sec/cm^2/sr.
Survival, body weight and tumor burden data from TFG-MET allograft-bearing mice. a,Schematic illustrating the preliminary in vivo study to determine the efficacy of RT alone. b, Survival curve of mice depicted in a. […] Each line represents one mouse. The ends of lines indicate the onset of neurological symptoms and thereby the endpoints.
Bioluminescence signals of in vivo trials.

TRIM24-MET-i PDOX [2] = conditions: for BLI signal, individual mice: PDX trial cap vs cabo
Method: (§2) All treatments started 18 days after transplantation. Radiotherapy was administered at 0.5 Gy per day, delivering 10 Gy total.
Each line represents one mouse. The ends of lines indicate the onset of neurological symptoms and thereby the endpoints. Treatment started on day 13.

TRIM24-MET-i PDOX [3] = experiment: TRIM24-MET-i PDOX 4-arm trial capmatinib +/- RT (survival, BLI, body weight); format: in vivo, mouse
Method: as §2
Treatment started on day 13.

[4] = In vitro protein binding assay, mouse plasma
[5] = test system: murine TFG-MET tumor cells; conditions: 7 days; RT 0Gy - 8Gy
Method: For both compounds 1 µM was used as positive control.
Compound concentrations comprised 10µM and 9 serial 1:3 dilutions in 4 replicates each and radiation doses ranged from 0Gy – 8Gy. […] Tested compound concentrations comprised 10 µM and 9 serial 1:3 dilutions in 4 replicates each. ZIP synergy scores were calculated based on cell numbers according to the CellTiter-Glo Assay by using the synergyfinder tool.

[6] = In vitro protein binding assay, naive mouse brain tissue homogenate
Kap1 pS824 = experiment: Western blot of phosphorylated Kap1 (pS824) in TFG-MET allograft tumors; format: in vivo, mouse; conditions: capmatinib and RT
Method: as §1

[7] = test system: cells isolated from murine tumors induced by overexpressing TFG-MET alone; conditions: without Trp53 knockout
[8] = humans, 400 mg BID orally; cited from earlier work
TFG-MET cells = experiment: γH2AX immunofluorescence after 8Gy irradiation, TFG-MET cells; format: cell-based, mouse; conditions: various time points following 8Gy irradiation
Source text: Error bars display standard error of mean, statistical significance determined using t-test analysis, *;p<0.05. Scale bar is 10µm.

[9] = mNSCLC patients; cited from earlier work

CNC(=O)c1ccc(-c2cnc3ncc(Cc4ccc5ncccc5c4)n3n2)cc1F [Capmatinib]
percentage of cells with ≥20 γH2AX-foci vs DMSO [1]: significantly higher | BLI signal, individual mice (TFG-MET allograft tumors; day 7, drug + RT): 2.90E+08 and 3.10E+06 and 2.30E+07 and 4.30E+06 and 9.70E+05 and 1.20E+06 and 8.80E+06 and 3.20E+06 and 7.40E+06 and 6.80E+07 | BLI signal, individual mice (TFG-MET allograft tumors; day 7, drug alone): 2.90E+06 and 5.20E+06 and 4.80E+06 and 3.30E+07 | BLI signal, individual mice (TFG-MET allograft tumors; day 10, drug + RT): 1.80E+08 and 2.30E+06 and 4.90E+07 and 1.20E+07 and 6.70E+06 and 5.70E+05 and 1.10E+07 and 1.60E+06 and 6.20E+06 and 3.60E+07 | BLI signal, individual mice (TFG-MET allograft tumors; day 10, drug alone): 2.30E+06 and 7.80E+06 and 1.50E+07 and 6.40E+07 | BLI signal, individual mice (TFG-MET allograft tumors; day 14, drug + RT): 2.10E+08 and 3.20E+06 and 6.50E+07 and 1.30E+07 and 3.10E+05 and 1.60E+05 and 7.60E+06 and 6.60E+05 and 1.20E+08 | BLI signal, individual mice (TFG-MET allograft tumors; day 14, drug alone): 8.30E+06 and 6.10E+07 and 2.00E+07 and 6.20E+07 | BLI signal, individual mice (TFG-MET allograft tumors; day 21, drug + RT): 1.10E+05 and 1.60E+05 and 1.30E+05 and 1.50E+07 and 5.10E+06 and 3.60E+06 and 6.20E+06 and 1.40E+05 and 9.20E+06 | BLI signal, individual mice (TFG-MET allograft tumors; day 21, drug alone): 8.80E+07 and 2.30E+08 and 7.60E+07 and 2.10E+08 | BLI signal, individual mice (TFG-MET allograft tumors; day 28, drug + RT): 1.10E+05 and 1.60E+05 and 2.00E+05 and 2.20E+08 and 4.30E+07 and 3.30E+07 and 5.10E+07 and 1.50E+05 and 5.80E+06 | BLI signal, individual mice (TFG-MET allograft tumors; day 28, drug alone): 5.10E+08 and 5.20E+08 and 2.60E+08 and 1.90E+08 | BLI signal, individual mice (TFG-MET allograft tumors; day 35, drug + RT): 1.10E+05 and 1.50E+05 and 1.40E+05 and 9.90E+05 and 1.00E+07 | BLI signal, individual mice (TFG-MET allograft tumors; day 42, drug + RT): 1.20E+05 and 1.30E+05 and 1.40E+05 and 2.50E+06 and 4.40E+07 | BLI signal, individual mice (TFG-MET allograft tumors; day 49, drug + RT): 1.30E+05 and 1.20E+05 and 7.40E+06 | BLI signal, individual mice (TFG-MET allograft tumors; day 56, drug + RT): 1.00E+05 and 1.40E+05 and 1.50E+05 and 6.60E+07 and 1.20E+08 | BLI signal, individual mice (TFG-MET allograft tumors; day 63, drug + RT): 1.10E+05 and 2.00E+05 and 1.40E+05 and 1.90E+08 | BLI signal, individual mice (TFG-MET allograft tumors; day 70, drug + RT): 1.10E+05 and 1.20E+05 | BLI signal, individual mice (TFG-MET allograft tumors; day 77, drug + RT): 1.02E+05 and 1.30E+05 and 1.10E+05 | BLI signal, individual mice (TFG-MET allograft tumors; day 84, drug + RT): 1.06E+05 and 9.93E+04 and 1.20E+05 | BLI signal, individual mice (TFG-MET allograft tumors; day 91, drug + RT): 9.34E+04 and 1.44E+05 and 1.14E+05 | animals with reduction of tumor burden by week 3 (BLI) (TFG-MET allograft tumors; capmatinib + RT (12 Gy)): 8/10 | increase of survival rate (TFG-MET allograft tumors; capmatinib + RT (12 Gy), Survival cohort): 3 fold | mice reaching 140 days after transplantation without residual tumor (TFG-MET allograft tumors; capmatinib + RT arm, n = 10): Three | BLI signal, individual mice (TRIM24-MET-i PDOX [2]; day 7): 3.18E+07 and 1.72E+07 and 3.36E+07 | BLI signal, individual mice (TRIM24-MET-i PDOX [2]; day 9): 7.47E+07 and 3.47E+07 | BLI signal, individual mice (TRIM24-MET-i PDOX [2]; day 14): 5.84E+07 and 2.51E+07 | BLI signal, individual mice (TRIM24-MET-i PDOX [2]; day 17): 2.44E+07 and 1.00E+07 | BLI signal, individual mice (TRIM24-MET-i PDOX [2]; day 21): 1.66E+07 and 1.85E+07 | BLI signal, individual mice (TRIM24-MET-i PDOX [2]; day 24): 1.50E+07 and 1.24E+07 | BLI signal, individual mice (TRIM24-MET-i PDOX [2]; day 28): 1.39E+07 and 1.53E+07 | BLI signal, individual mice (TRIM24-MET-i PDOX [2]; day 31): 7.80E+06 and 1.43E+07 | BLI signal, individual mice (TRIM24-MET-i PDOX [2]; day 35): 9.55E+06 and 1.60E+07 and 7.43E+06 | BLI signal, individual mice (TRIM24-MET-i PDOX [2]; day 38): 8.92E+06 and 1.56E+07 and 7.00E+06 | BLI signal, individual mice (TRIM24-MET-i PDOX [2]; day 42): 7.91E+06 and 1.63E+07 and 5.51E+06 | BLI signal, individual mice (TRIM24-MET-i PDOX [2]; day 45): 9.52E+06 and 1.30E+07 and 6.98E+06 | BLI signal, individual mice (TRIM24-MET-i PDOX [2]; day 49): 7.93E+06 and 9.97E+06 and 5.88E+06 | BLI signal, individual mice (TRIM24-MET-i PDOX [2]; day 52): 7.48E+06 and 8.25E+06 and 4.19E+06 | BLI signal, individual mice (TRIM24-MET-i PDOX [2]; day 56): 8.25E+06 and 1.00E+07 and 5.09E+06 | BLI signal, individual mice (TRIM24-MET-i PDOX [2]; day 59): 2.02E+06 and 8.98E+06 and 4.17E+06 | BLI signal, individual mice (TRIM24-MET-i PDOX [2]; day 63): 5.64E+06 and 9.13E+06 and 4.23E+06 | BLI signal, individual mice (TRIM24-MET-i PDOX [2]; day 66): 6.00E+06 and 8.25E+06 and 4.18E+06 | BLI signal, individual mice (TRIM24-MET-i PDOX [2]; day 70): 1.53E+06 and 8.82E+06 and 4.89E+06 | BLI signal, individual mice (TRIM24-MET-i PDOX [2]; day 73): 1.32E+06 and 6.23E+06 and 4.17E+06 | BLI signal, individual mice (TRIM24-MET-i PDOX [2]; day 77): 4.79E+05 and 1.07E+07 and 4.65E+06 | BLI signal, individual mice (TRIM24-MET-i PDOX [2]; day 80): 4.21E+05 and 1.01E+07 and 4.77E+06 | BLI signal, individual mice (TRIM24-MET-i PDOX [2]; day 87): 5.96E+05 and 1.05E+07 and 4.96E+06 | BLI signal, individual mice (TRIM24-MET-i PDOX [2]; day 94): 8.51E+05 and 7.79E+06 | BLI signal, individual mice (TRIM24-MET-i PDOX [2]; day 101): 4.10E+05 and 7.68E+06 | BLI signal, individual mice (TRIM24-MET-i PDOX [2]; day 108): 4.16E+05 and 7.10E+06 | BLI signal, individual mice (TRIM24-MET-i PDOX [2]; day 115): 3.96E+05 and 8.39E+06 | BLI signal, individual mice (TRIM24-MET-i PDOX [2]; day 122): 5.52E+05 and 6.96E+06 | BLI signal, individual mice (TRIM24-MET-i PDOX [2]; day 129): 5.43E+05 and 7.67E+06 | BLI signal, individual mice (TRIM24-MET-i PDOX [2]; day 134): 7.37E+05 and 1.29E+07 | BLI signal, individual mice (TRIM24-MET-i PDOX [2]; day 142): 2.48E+05 and 8.31E+06 | BLI signal, individual mice (TRIM24-MET-i PDOX [2]; day 147): 1.01E+05 and 6.09E+06 | BLI signal, individual mice (TRIM24-MET-i PDOX [2]; day 154): 7.12E+04 and 6.90E+06 | BLI signal, individual mice (TRIM24-MET-i PDOX [2]; day 161): 9.26E+04 and 5.65E+06 | BLI signal, individual mice (TRIM24-MET-i PDOX [2]; day 175): 1.61E+05 and 5.72E+06 | BLI signal, individual mice (TRIM24-MET-i PDOX [2]; day 182): 4.78E+04 and 7.21E+06 | BLI signal, individual mice (TRIM24-MET-i PDOX [2]; day 190): 3.12E+05 and 5.75E+06 | BLI signal, individual mice (TRIM24-MET-i PDOX [2]; day 196): 6.90E+05 and 4.81E+06 | BLI signal, individual mice (TRIM24-MET-i PDOX [2]; day 203): 1.41E+06 and 5.43E+06 | BLI signal, individual mice (TRIM24-MET-i PDOX [2]; day 210): 4.51E+07 and 1.12E+07 | BLI signal, individual mice (TRIM24-MET-i PDOX [2]; day 217): 1.20E+07 | BLI signal, individual mice (TRIM24-MET-i PDOX [2]; day 224): 3.17E+07 | BLI signal, individual mice (TRIM24-MET-i PDOX [2]; day 231): 3.11E+08 | BLI signal, individual mice (TRIM24-MET-i PDOX [2]; day 238): 8.31E+08 | survival over the 19-week treatment period (TRIM24-MET-i PDOX [2]; capmatinib BID, 8 mice): all mice surviving | mice with initial tumor regression (luciferase imaging) (TRIM24-MET-i PDOX [2]; capmatinib monotherapy): two out of eight | mice with stable disease (BLI) (TRIM24-MET-i PDOX [2]; capmatinib monotherapy): six out of eight | mice with tumor relapse within 6 months after treatment ceased (TRIM24-MET-i PDOX [2]; capmatinib, treated 133 days): 7 of 8 | mice with spinal metastasis after therapy was withdrawn (TRIM24-MET-i PDOX [3]; capmatinib + RT): one | tumor burden (TRIM24-MET-i PDOX [3]; capmatinib + RT (0.5 Gy per day, 10 Gy total)): profoundly and stably decreased tumor burden | disease course under monotherapy (TRIM24-MET-i PDOX [3]; capmatinib alone): stable disease in all treated animals | fraction unbound [4]: 0.0502 | combination effect with RT (ZIP synergy model) [5]: additive effect with a trend towards synergy | fraction unbound [6]: 0.113 | phosphorylated Kap1 in tumors vs vehicle + RT (Kap1 pS824): significantly greater increase | inhibition in dose response assay [7]: potently inhibited | mean steady total plasma AUC [8]: 17,300 hr-ng/mL | percentage of cells with ≥10 γH2AX-foci vs DMSO (TFG-MET cells): significantly higher | discontinuation due to fatigue [9]: 1.5% | discontinuation due to peripheral edema [9]: 1.8% | discontinuation due to pneumonitis [9]: 1.8% | patients permanently discontinued due to an adverse reaction [9]: 16%

From PMC11157767 (Molecular Cancer, 2024)
